According to patent publication US20220299500A1, “NDUFS2 SUBUNIT KNOCKOUT HUMAN CELL LINE” (priority 2019, published 2022):
Entries after “also recorded” stand apart in the source; their conditions may differ.

Key:
Format in all cases: cell-based, human
[1] = system: permeabilized mutant HEK293ΔNDUFS2 cells; assay: Oxygen consumption of permeabilized mutant cells, Oroboros O2k respirometry
Method: Mitochondrial respiration measurements with Oroboros O2K respirometry. Oxygen consumption rate (OCR) of strains was determined using protocols described elsewhere (Alleman R J, et al. Am J Physiol Heart Circ Physiol 2016, 310(10):H1360-1370; Goswami I, et al. Biophys J 2018, 114(12):2951-2964). Briefly, the parent type HEK293 and the mutant HEK293ΔNDUFS2 grown for eight days in 225 cm^2 flasks for 75-80% confluence were harvested by treatment with trypsin-EDTA, centrifuged at 300×g for 3 min, and resuspended in assay buffer Z (105 mM 2-(N-Morpholino)ethanesulfonic acid potassium salt, 30 mM KCl, 10 mM KH2PO4, 5 mM MgCl2-6H2O, 0.5 mg/mL bovine serum albumin, 20 mM creatine, 1 mM EGTA [pH 7.1] in dH2O). Approximately one million cells in 2 ml volumes were then introduced into the Oroboros O2K respiration chamber, which is equipped with calibrated oxygen measuring polarographic sensors. The oxygen signals were allowed to stabilize before closing the chamber to the outside air while chamber temperature was maintained at 37° C. Subsequently, the OCR was recorded after injection with none (basal), 2 mM of malate plus 10 mM glutamate (G/M), 5 mM of adenosine diphosphate (ADP), and 1.0 μM protonophore Carbonyl cyanide 4-(trifluoromethoxy)phenylhydrazone (FCCP).
Cell growth and metabolism. To measure the cell proliferation of parent HEK293 and mutant HEK293ΔNDUFS2, aliquots of 50,000 cells were introduced into 75 cm^2 flasks each carrying 25 ml growth media and cell numbers were quantified in triplicates after 4 and 6 days of incubation. Extracellular Acidification Rate (ECAR) was determined with an Agilent Seahorse XFe96 analyzer (Ryall J G. Methods Mol Biol 2017, 1556:245-253). Cellular ATP pool and cell-membrane porousness were measured using Mitochondrial ToxGlo Assay (Promega Corporation, Madison, Wis.). Oxygen consumption of saponin-permeabilized cells (Hahn D, et al. Am J Physiol Cell Physiol 2019, 317(4):C665-C673) was measured by Oroboros O2k respirometry (Alleman R J, et al. Am J Physiol Heart Circ Physiol 2016, 310(10):H1360-1370; Goswami I, et al. Biophys J 2018, 114(12):2951-2964).
(§1) Restoring (rescuing) the impaired growth and respiration the mutant. Effectiveness of the potential Complex I therapeutic idebenone in restoring the ATP synthesis defects of the mutant HEK293ΔNDUFS2 was evaluated. In this procedure, mutant cells were cultured in media supplemented with 1 μM of idebenone in 96-well plates at 2,000 cells/well. Fresh media (with or without the therapeutic) were added on days 0, 3 and 5. Cellular ATP pool was assessed on day 6 of incubation by Mitochondrial ToxGlo Assay. Mutant cells were also cultured in 6-well plates at 2000 cells/well in medium supplemented 0.5, 1, 5, or 10 μM of idebenone. Fresh media containing the drug was added on days 3, 6 and 9, and the cell counts in wells of triplicates was determined following 10 days incubation. Efficacy of idebenone in improving respiration of permeabilized mutant cells was measured by O2k respirometry as described above with the following modification: subsequent to glutamate+malate injection, idebenone was injected into chambers at 1 μM final concentration. The control groups received DMSO.

[2] = system: mutant HEK293ΔNDUFS2; assay: Cell growth of mutant cultures treated for 10 days (cell counts)
Method: as §1

[3] = system: mutant HEK293ΔNDUFS2; assay: ATP synthesis of mutant cells grown with therapeutics, Mitochondrial ToxGlo Assay; conditions: for amount of ATP compared to mutant cells treated with DMSO: day 6, luminescence normalized to DMSO control; for restoration of ATP synthesis defects of the mutant: concentration not given
Method: (§2) ATP synthesis and cell-membrane integrity of strains. Potential mitochondrial dysfunction of strains was assessed by using the Mitochondrial ToxGlo Assay (Promega Corporation, Madison, Wis.), according to the procedure described by the manufacturer. This assay is based on the measurements of biomarkers associated with changes in cell membrane integrity and cellular ATP levels. Briefly, the parent and mutant cells grown in flasks were harvested by trypsinization and resuspended in fresh medium. Approximately 10,000 cells/well were added to a 96-well plate and incubated overnight. A working stock of antimycin A, which is a mitochondrial toxin (complex III inhibitor) was prepared at a concentration of 150 μM in a glucose-free DMEM medium (Sigma-Aldrich) supplemented with 10 mM galactose (Sigma-Aldrich). Serial dilutions of the mitochondrial toxin were prepared in a separate 96-well plate (in galactose containing medium). Overnight grown cells were washed with glucose-free galactose containing medium, and fresh (galactose containing medium) was added into wells at 50 μl/well. Fifty μl volumes of the serial dilutions of toxin were transferred from the stock plate to the wells in cell culture plate. The wells carrying the vehicle controls received the medium with no toxin. The plate was incubated at 37° C. for 90 min. Twenty μl volumes of 5× Cytotoxicity Reagent were added to each well, the plate was incubated at 37° C. for further 30 min, and the fluorescence was measured at 475 nmEX/500-550 nmEM, by using a Glomax Discover plate reader (Promega Corporation). The assay plate was equilibrated to room temperature, 100 μl ATP Detection Reagent was added to each well, and luminescence was measured by using the same plate reader.
Restoring (rescuing) the altered/lost phenotypes of the mutant with the use of potential complex I therapeutics. Effectiveness of the potential complex I therapeutics in restoring the metabolic defects of the mutant HEK293ΔNDUFS2 was evaluated. For this purpose, the mutant cells were treated with the therapeutic idebenone or its analog SBT-220 and change in ATP synthesis was examined. In this procedure, the mutant cells were suspended in culture media supplemented with 0, 1, or 10 μM of idebenone, conjugate SBT-220, conjugate SBT-222, or elamipretide, and plated in 96 well plates at 2,000 cells/well. Cells suspended in DMSO served as controls. Fresh media (with or without therapeutics) were added on days 0, 3 and 5. Cellular ATP synthesis was assessed on day 6 of incubation by using the Mitochondrial ToxGlo Assay, as described above. The responses of ATP synthesis in the treatment groups were normalized to that of the control group.
as §1

[4] = system: mutant HEK293ΔNDUFS2; assay: ATP synthesis in presence of respiratory inhibitor, Mitochondrial ToxGlo Assay; conditions: Antimycin A added to reaction media
Method: as §2

[5] = system: parent HEK293; assay: as above; conditions: Antimycin A added to reaction media, 90 min
Method: as §2

[6] = system: mutant HEK293ΔNDUFS2; assay: Cell-membrane porousness in presence of respiratory inhibitor, Mitochondrial ToxGlo Assay
Method: as §2

[7] = system: parent HEK293; assay: as above; conditions: Antimycin A added to reaction medium
Method: as §2

[8] = 1 μM final concentration, vs DMSO

In the case of COC1=C(OC)C(=O)C(CCCCCCCCCCO)=C(C)C1=O [idebenone], the “Complex I respiration” value ([1]; 1 μM final concentration injected after glutamate+malate, vs DMSO) is reported as “improved significantly”, the “Complex II respiration” value [1, 8] is reported as “improved significantly” and the OXPHOS capacity [1, 8] is reported as “improved significantly”. The maximal respiration [1, 8] was “improved significantly”, the “oxygen consumption all along the ETC” value ([1]; idebenone treatment vs DMSO) was “improved oxygen consumption all along the ETC” and the “more cells recovered compared to the DMSO control” value ([2]; 0.5 μM, 10 days) was 32.1%. The “cell proliferation” value ([2]; 0.5 μM, long-term treatment) was “enhanced cell proliferation”, the “growth of the mutant” value ([2]; 1 μM, 10 days) was “did not improve growth” and the “growth of the mutant” value ([2]; 5 μM, 10 days) was “did not improve growth”. For the same compound, the “effect on mutant cells in growth test” value ([2]; 10 μM, 10 days) was “caused cell death”, the “amount of ATP compared to mutant cells treated with DMSO” value ([3]; 1 μM) was 2.4 folds and the “restoration of ATP synthesis / ATP pool of the mutant” value ([3]; 1 μM, long-term treatment (six days)) was “restored the ATP synthesis of the mutant to some extent; also recorded: significantly greater amount of ATP; also recorded: improved ATP pool”. The “improvement of ATP synthesis defects of the mutant” value ([3]; 10 μM) was “failed to improve” and the “restoration of ATP synthesis defects of the mutant” value [3] was “partially restored”.
For Antimycin A, the “decline of ATP synthesis in the mutant compared to the parent” value [4] was “up to 2.2 folds”, the ATP synthesis ability ([4]; 90 min) was “declined drastically” and the ATP synthesis ability [5] was “declined drastically”. For the same compound, the membrane porousness ([6]; Antimycin A added to reaction medium) was “more porous”, the “cell membrane porousness of the mutant relative to the parent” value ([6]; as a result of antimycin A treatment) was “up to 4.5 folds” and the membrane porousness [7] was “more porous”.
With elamipretide the “amount of ATP compared to mutant cells treated with DMSO” value ([3]; 1 μM) was 2.1 folds and the “restoration of ATP synthesis defects of the mutant” value [3] was “partially restored”.
